Data published in patent US4461906A, “Pyrrolidine 2-one derivatives” (Hoffmann-La Roche Inc., priority 1979, dated 1984).

Assay: Acute toxicity, single oral administration to mice
Conditions: mouse, in vivo, p.o.

Structure (SMILES)	LD50 [mg/kg]
COc1ccc(C(=O)N2CCC(O)C2=O)cc1 (racemic) [A]	> 5000
COc1ccc(C(=O)N2CC(O)CC2=O)cc1 (racemic) [C, (R,S)-1-(p-Methoxybenzoyl)-4-hydroxy-2-pyrrolidinone]	2000 to 4000
COc1ccc(C(=O)N2CCCC2=O)cc1O [B, 1-(3-Hydroxy-4-methoxybenzoyl)-2-pyrrolidinone]	1250 to 2500
